The values below come from paper PMC5063381, “Characterization of the Neisseria meningitidis Helicase RecG” (PLoS ONE, 2016).

One assay deals with T1, RecGNm (Neisseria meningitidis, UniProt Q9JY17).
T1 construct: gene recG; ORF in pET28b(+) (pGTB1, NdeI/XhoI), N-terminal 6xHis-tag, expressed in E. coli ER2566; Ni-NTA and Superdex 75
T1 sequence (Q9JY17 1-680): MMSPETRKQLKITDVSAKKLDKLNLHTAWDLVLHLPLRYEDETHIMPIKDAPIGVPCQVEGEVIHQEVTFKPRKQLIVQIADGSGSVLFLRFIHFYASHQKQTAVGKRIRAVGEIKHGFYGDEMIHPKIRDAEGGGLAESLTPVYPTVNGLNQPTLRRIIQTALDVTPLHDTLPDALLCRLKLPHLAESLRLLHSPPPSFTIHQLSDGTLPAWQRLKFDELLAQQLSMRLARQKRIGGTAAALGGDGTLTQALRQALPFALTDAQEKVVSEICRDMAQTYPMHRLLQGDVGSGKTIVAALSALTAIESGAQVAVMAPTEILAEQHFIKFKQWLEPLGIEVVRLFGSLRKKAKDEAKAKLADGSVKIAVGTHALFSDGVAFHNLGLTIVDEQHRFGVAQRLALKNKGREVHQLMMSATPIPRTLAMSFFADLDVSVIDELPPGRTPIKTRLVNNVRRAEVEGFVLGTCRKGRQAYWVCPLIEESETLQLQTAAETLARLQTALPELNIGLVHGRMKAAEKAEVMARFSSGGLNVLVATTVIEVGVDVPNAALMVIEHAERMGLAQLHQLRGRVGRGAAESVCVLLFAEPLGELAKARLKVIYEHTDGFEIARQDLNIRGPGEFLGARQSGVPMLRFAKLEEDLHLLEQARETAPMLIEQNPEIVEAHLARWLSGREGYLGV
The assay can be described thus: TLC ATPase assay with [gamma-32P]ATP. The note with it: 100 nM DNA cofactor (branched DNA), 2 mM MgCl2, pH 7.5, 37 °C; labelled compound as tracer. Format: biochemical.

Assay [1] concerns the target T2, Neisseria meningitidis DNA repair/recombination helicase RecG (Neisseria meningitidis strain MC58, UniProt Q9JY17 1-680).
T2 construct: RecG helicase of Neisseria meningitidis strain MC58; the ORF was amplified from genomic DNA and cloned into pET28b(+) between XhoI and NdeI (plasmid pGTB1); also called RecGNm; Nm RecG; source: E. coli ER2566, purified (Ni-NTA, gel filtration on Superdex 75)
T2 sequence (looked up): T1 sequence (Q9JY17 1-680)
Briefly: MST; 21 nM RED-NHS labelled SSBNm, RecGNm titrated; 20 mM HEPES pH 7.5, 300 mM NaCl, 0.05% Tween 20, 0.1% Pluronic F-127, 0.1% PEG 8000, 2 mM DTT; 22°C, 40% MST power. The note with it: both partners purified.

Take `Nc1ncnc2c1ncn2[C@@H]1O[C@H](COP(=O)(O)OP(=O)(O)OP(=O)(O)O)[C@@H](O)[C@H]1O` [ATP]: the “% ATP hydrolysis” value on RecGNm was “RecGNm displayed comparable capacity of ATP hydrolysis in the presence of different types of branched”.

B1: Neisseria meningitidis single-stranded DNA-binding protein SSB (natural protein, Neisseria meningitidis strain MC58, UniProt P66848 1-174, looked up)
chain: MSLNKVILIGRLGRDPEVRYMPNGEAVCNFSVATSETWNDRNGQRVERTEWHNITMYRKLAEIAGQYLKKGGLVYLEGRIQSRKYQGKDGIERTAYDIVANEMKMLGGRNENSGGAPYEEGYGQSQEAYQRPAQQSRQPASDAPSHPQEAPAAPRRQPVPAAAPVEDIDDDIPF
modifications: Monolith NT Protein Labeling Kit RED-NHS dye, degree of labelling 0.65 (in the MST only)
notes: It was unlabelled in the gel filtration and RED-NHS labelled in the MST; also called SSBNm; source: plasmid pEH1 (pQE-30 harboring ssb from Nm MC58)
Usually Kd stands for the concentration at which binding is half-saturated. For the molecule B1, in assay [1], the Kd came to 558 ± 139 nM.
